Data on nine molecules can be found in ChEMBL document CHEMBL5465560, “Selectivity Literature for EUbOPEN Chemogenomic Library” (2024).

The target in experiment [1] is Mitogen-activated protein kinase 14 (Homo sapiens, UniProt Q16539). Kind of experiment: Selectivity interaction (Upstate Kinase Profiler service (Millipore)) EUB0000056c MAPK14. Particulars: at 1 µM.
Experiment [2] has as its target Protein-tyrosine kinase 2-beta (Homo sapiens) (UniProt Q14289). Particulars: at 10 µM.
Experiment [3] concerns the target Mitogen-activated protein kinase kinase kinase 11 (Homo sapiens) (UniProt Q16584). Kind of experiment: Selectivity interaction (KinomeScan (DiscoverX)) EUB0000655a MAP3K11. The settings on record: at 10 µM.
For experiment [4], the target named is T1, TGF-beta receptor type-1 (Homo sapiens) (UniProt P36897).
T1 sequence (whole entry): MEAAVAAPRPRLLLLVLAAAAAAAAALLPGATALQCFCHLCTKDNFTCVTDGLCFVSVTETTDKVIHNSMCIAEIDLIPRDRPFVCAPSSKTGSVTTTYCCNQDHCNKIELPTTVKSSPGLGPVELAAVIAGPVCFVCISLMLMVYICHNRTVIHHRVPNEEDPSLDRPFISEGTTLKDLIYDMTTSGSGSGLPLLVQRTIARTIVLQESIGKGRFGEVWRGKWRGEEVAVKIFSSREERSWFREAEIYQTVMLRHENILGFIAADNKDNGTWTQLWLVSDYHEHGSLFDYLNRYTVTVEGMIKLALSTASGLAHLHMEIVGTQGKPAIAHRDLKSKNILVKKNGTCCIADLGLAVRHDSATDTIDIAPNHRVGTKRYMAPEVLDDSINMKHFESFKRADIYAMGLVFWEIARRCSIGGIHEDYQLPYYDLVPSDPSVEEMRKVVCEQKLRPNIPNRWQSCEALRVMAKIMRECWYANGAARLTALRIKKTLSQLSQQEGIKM
The experiment can be described thus: Selectivity interaction (KinomeScan (DiscoverX)) EUB0000655a TGFBR1. Particulars: at 10 µM.

Experiment [5] addresses Ribosomal protein S6 kinase alpha-1 (Homo sapiens, UniProt Q15418). Kind of experiment: Selectivity interaction (KinomeScan (DiscoverX)) EUB0000695a RPS6KA1. Particulars: at 100 nM.
The target of experiment [6] is N6-adenosine-methyltransferase catalytic subunit (Homo sapiens) (UniProt Q86U44). The experiment can be described thus: Selectivity interaction (Transferase panel (protein, RNA, and DNA methyltransferases. and EP300 (acetyltransferase))) EUB0000270b METTL3.
Experiment [7] has as its target Tyrosine-protein kinase Fyn (Homo sapiens) (UniProt P06241). The experiment can be described thus: Selectivity interaction (ActivX KiNativ screen (kinase selectivity in THP-1 cell lysates)) EUB0000639a FYN. Format: subcellular. Particulars: lysate, at 0.2 µM.
Experiment [8] deals with T2, Dual specificity mitogen-activated protein kinase kinase 3 (Homo sapiens) (UniProt P46734).
T2 sequence (whole entry): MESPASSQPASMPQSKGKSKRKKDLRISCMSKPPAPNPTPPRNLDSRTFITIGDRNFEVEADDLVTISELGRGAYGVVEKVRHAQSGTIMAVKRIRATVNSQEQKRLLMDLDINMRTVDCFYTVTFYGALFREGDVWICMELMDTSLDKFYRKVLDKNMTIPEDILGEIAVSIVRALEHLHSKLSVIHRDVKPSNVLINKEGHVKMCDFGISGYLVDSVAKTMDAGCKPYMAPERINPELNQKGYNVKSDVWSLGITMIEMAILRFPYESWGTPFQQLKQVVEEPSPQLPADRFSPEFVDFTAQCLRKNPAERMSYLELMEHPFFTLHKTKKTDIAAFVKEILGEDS
Kind of experiment: Selectivity interaction (ActivX KiNativ screen (kinase selectivity in THP-1 cell lysates)) EUB0000639a MAP2K3. Particulars: lysate, at 0.04 µM. The class given is subcellular.

The target of experiment [9] is T3, Dual specificity mitogen-activated protein kinase kinase 5 (Homo sapiens) (UniProt Q13163).
T3 sequence (whole entry): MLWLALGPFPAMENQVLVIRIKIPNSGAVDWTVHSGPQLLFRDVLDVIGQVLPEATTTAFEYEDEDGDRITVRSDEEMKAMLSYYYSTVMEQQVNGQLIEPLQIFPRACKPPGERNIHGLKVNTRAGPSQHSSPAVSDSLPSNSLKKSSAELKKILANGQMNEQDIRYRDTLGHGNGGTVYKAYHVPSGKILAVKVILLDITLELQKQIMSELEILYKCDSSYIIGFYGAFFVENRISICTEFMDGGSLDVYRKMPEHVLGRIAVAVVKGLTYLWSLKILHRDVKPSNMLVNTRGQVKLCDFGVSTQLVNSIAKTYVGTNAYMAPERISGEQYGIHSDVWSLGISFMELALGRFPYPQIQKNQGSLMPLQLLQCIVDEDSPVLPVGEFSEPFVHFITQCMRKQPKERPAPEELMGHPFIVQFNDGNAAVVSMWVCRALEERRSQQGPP
The experiment can be described thus: Selectivity interaction (KinomeScan (DiscoverX)) EUB0000229b MAP2K5. The settings on record: at 10 µM.

The target in experiment [10] is Protein kinase C alpha type (Homo sapiens, UniProt P17252). Kind of experiment: Selectivity interaction (ActivX KiNativ screen (ex vivo kinase selectivity in human PBMCs)) EUB0001619a PRKCA. Format: cell-based. Particulars: PBMC, at 1 µM.
Experiment [11] deals with Serine/threonine-protein kinase pim-2 (Homo sapiens, UniProt Q9P1W9). The experiment can be described thus: Selectivity interaction (KinomeScan (DiscoverX)) EUB0000618a PIM2. Particulars: at 10 µM.
Sequence of Serine/threonine-protein kinase pim-2 (Q9P1W9 whole entry, looked up): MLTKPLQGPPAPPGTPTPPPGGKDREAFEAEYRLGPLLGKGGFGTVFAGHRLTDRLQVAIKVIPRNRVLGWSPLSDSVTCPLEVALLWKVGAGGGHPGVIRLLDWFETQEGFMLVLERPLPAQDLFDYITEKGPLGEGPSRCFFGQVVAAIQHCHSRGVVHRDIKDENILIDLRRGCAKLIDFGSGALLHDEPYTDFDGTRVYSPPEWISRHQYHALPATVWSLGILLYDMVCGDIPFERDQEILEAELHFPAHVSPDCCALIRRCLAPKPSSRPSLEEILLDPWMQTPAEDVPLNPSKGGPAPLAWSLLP

Sequence of N6-adenosine-methyltransferase catalytic subunit (Homo sapiens) (Q86U44 whole entry): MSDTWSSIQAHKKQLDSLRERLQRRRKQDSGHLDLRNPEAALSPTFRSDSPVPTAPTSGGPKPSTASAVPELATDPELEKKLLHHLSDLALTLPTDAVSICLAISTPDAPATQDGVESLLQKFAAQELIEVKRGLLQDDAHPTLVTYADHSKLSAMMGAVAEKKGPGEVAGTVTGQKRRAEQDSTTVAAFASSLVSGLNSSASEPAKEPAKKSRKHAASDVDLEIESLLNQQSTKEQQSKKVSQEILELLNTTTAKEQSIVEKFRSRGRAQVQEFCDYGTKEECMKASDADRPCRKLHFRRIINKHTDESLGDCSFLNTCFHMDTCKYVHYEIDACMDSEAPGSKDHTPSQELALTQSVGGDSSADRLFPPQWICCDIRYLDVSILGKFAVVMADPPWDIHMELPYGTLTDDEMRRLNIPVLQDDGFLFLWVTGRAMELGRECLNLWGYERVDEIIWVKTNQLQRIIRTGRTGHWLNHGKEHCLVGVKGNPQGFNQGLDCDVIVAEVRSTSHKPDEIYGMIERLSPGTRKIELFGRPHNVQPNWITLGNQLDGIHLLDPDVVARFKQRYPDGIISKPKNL
Sequence of Protein-tyrosine kinase 2-beta (Homo sapiens) (Q14289 whole entry, looked up): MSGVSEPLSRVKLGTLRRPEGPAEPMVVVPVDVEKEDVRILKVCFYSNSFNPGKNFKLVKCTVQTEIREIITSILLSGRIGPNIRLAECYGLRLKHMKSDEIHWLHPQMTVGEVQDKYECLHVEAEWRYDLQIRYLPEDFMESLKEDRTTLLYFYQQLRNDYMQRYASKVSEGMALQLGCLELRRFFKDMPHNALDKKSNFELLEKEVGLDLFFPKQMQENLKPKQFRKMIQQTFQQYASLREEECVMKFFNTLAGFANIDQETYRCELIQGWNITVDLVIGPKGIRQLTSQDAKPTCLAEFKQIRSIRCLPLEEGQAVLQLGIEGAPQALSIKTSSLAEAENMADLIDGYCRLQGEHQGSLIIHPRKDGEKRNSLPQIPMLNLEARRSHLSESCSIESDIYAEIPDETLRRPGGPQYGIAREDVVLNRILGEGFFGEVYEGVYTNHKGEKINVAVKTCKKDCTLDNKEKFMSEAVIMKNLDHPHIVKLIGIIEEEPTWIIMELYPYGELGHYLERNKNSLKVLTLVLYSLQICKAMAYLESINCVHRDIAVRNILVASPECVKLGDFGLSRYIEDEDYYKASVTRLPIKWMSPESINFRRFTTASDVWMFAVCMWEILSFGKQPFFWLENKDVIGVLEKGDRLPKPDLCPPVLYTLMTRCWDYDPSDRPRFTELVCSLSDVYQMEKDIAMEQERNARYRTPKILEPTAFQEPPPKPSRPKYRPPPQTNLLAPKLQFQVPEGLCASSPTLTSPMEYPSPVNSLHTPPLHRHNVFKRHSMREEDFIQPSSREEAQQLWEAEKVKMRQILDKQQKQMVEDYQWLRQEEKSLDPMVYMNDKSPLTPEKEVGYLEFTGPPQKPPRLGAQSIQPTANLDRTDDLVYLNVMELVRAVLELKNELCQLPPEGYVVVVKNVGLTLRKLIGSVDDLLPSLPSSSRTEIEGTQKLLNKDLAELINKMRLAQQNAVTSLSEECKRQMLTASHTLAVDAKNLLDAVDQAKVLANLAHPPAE
Sequence of Mitogen-activated protein kinase kinase kinase 11 (Homo sapiens) (Q16584 whole entry, looked up): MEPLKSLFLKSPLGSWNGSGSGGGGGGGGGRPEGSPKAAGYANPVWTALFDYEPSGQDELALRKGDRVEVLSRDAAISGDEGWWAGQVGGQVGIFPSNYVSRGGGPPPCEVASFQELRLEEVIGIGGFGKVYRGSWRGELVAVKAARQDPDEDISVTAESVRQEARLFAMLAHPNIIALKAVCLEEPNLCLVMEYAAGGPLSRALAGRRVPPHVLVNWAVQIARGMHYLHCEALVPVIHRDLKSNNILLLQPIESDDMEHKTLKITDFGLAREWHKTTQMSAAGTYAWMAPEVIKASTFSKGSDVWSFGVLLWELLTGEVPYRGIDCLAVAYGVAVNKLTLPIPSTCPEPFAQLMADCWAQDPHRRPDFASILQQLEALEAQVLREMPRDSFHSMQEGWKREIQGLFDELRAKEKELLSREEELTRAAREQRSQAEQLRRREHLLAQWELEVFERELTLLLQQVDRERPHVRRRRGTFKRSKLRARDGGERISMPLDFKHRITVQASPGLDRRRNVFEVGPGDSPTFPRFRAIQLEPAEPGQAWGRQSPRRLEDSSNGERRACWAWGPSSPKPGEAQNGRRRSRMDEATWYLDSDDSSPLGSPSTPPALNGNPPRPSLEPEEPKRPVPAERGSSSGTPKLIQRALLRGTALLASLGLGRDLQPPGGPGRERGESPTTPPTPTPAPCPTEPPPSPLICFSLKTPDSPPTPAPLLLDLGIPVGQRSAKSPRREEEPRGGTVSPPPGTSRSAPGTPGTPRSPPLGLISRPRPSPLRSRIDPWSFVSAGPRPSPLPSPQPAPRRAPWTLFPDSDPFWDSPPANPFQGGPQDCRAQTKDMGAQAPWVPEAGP
Sequence of Tyrosine-protein kinase Fyn (Homo sapiens) (P06241 2-537 limits assumed): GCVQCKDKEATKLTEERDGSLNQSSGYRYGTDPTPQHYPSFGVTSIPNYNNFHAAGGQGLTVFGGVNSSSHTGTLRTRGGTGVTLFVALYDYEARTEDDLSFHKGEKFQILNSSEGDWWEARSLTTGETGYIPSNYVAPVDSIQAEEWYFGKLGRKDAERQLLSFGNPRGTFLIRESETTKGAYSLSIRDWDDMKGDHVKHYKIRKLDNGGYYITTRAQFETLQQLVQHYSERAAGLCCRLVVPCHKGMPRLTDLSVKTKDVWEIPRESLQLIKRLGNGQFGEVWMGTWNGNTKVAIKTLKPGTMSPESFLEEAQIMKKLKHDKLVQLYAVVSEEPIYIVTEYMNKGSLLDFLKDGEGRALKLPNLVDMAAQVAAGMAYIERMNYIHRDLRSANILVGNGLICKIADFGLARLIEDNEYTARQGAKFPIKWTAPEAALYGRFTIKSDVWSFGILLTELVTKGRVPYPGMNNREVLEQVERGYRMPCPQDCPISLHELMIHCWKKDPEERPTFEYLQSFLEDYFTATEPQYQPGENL
Sequence of Mitogen-activated protein kinase 14 (Q16539 whole entry): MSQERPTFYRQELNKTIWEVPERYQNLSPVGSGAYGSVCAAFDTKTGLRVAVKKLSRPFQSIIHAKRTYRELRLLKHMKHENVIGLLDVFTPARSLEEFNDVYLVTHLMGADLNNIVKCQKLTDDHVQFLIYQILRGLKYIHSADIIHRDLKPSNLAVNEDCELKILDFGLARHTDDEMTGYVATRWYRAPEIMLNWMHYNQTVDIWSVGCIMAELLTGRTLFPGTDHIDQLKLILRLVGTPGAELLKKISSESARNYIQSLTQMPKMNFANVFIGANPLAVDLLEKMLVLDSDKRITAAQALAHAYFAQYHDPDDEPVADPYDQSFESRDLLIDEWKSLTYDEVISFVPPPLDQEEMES
Sequence of Ribosomal protein S6 kinase alpha-1 (Q15418 whole entry): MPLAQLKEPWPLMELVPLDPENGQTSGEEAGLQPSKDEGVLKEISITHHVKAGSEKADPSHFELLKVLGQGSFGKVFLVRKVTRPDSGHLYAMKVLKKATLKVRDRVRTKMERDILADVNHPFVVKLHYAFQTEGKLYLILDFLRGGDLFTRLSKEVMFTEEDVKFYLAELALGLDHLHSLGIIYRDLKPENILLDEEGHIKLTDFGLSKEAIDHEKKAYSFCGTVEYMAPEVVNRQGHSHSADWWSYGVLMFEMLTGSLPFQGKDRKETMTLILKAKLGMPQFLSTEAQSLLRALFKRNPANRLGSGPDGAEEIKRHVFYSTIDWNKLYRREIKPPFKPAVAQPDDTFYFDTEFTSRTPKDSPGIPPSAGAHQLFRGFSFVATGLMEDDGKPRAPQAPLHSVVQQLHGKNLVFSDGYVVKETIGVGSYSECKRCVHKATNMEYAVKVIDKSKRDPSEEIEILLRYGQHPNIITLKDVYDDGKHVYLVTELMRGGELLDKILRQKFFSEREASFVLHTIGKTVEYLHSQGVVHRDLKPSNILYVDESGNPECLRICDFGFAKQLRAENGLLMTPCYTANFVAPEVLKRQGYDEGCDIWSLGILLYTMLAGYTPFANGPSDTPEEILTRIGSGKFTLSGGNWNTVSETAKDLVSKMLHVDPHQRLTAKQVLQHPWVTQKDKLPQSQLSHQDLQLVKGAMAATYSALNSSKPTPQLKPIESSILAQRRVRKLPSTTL

Take `Cc1ccc(-c2ccc3c(ccc4sc5c(c43)NC[C@@H](C)NC5=O)n2)cn1`: in experiment [1], the % of inhibition amounted to 0%.

`Cc1cc([C@@H](C)Nc2ccccc2C(=O)O)c2nc(N3CCOCC3)cc(=O)n2c1` [AZD-6482]: in [2], the % of control amounted to 100%.

As for `CN(C)CCOc1ccc(-c2nc(-c3ccncc3)c(-c3ccc4c(c3)CC/C4=N\O)[nH]2)cc1`, the % of control amounted to 100% in experiment [3] and 17% in experiment [4].

`Cc1cc(F)c(C(=O)Nc2cccc(-c3nncn3C(C)C)n2)cc1-n1cnc(C2CC2)c1` yielded a % of control in [5] of 88%.

Consider `Cc1cc(CN)cc(C)c1-c1ncn(C)c1-c1cncn1C`, for which the values for the % activity in experiment [6] (at 1 µM) and in [6] (at 10 µM) were above 90% and above 80%, respectively.

As to `CC[C@@H]1[C@H](F)C(=O)N[C@@H]1COc1nccc2cc(C(N)=O)c(OC)cc12` [ZIMLOVISERTIB], the values for the % of inhibition in experiment [7] and in experiment [8] were 0.7% and -19%, respectively.

In experiment [9], `COc1cc(N(C)c2ccnc3ccc(C(F)(F)F)cc23)cc(OC)c1OC` gave a % binding of 86%.

For `N#Cc1cccc(-c2c[nH]c3ncnc(N4CCOCC4)c23)c1`, the % of inhibition in experiment [10] was 57%.

Turning to `O[C@H]1CC[C@H](Nc2ncc3nc(Nc4c(F)cc(F)cc4F)n([C@H]4CCOC4)c3n2)CC1`, the % of control in experiment [11] was determined as 100%.
